Laboratory results reported in PMC11363342 (ACS Central Science, 2024).

Tested on: SARS-CoV-2 variants Alpha, Beta, Delta, Omicron BA.1, and XBB.1.5
Type: cell-based

Structure (SMILES): O=S1(=O)O[C@@H]2[C@H](O)[C@@H](O)[C@H](O)[C@@H](CO)[C@@H]2O1 [Compound 11, 1,6-epi-cyclophellitol cyclosulfate]
- reduction in infectious virus titer, SARS-CoV-2 variants: ~100 fold
